target: T1, SMYD2 (Homo sapiens, UniProt Q9NRG4); experiment: SMYD2 Biochemical Assay (3H-SAM, biotinylated peptide substrate, Flashplate); conditions: IC50 values are an average of n = 1 to n = 50; read-out: SMYD2 Biochem IC50 (μM)*
T1 construct: Full length SMYD2 (NP 064582.2) was cloned; His6 (N, cleaved yes); FLAG (N); made in house; host or cells: Sf9 insect cells
Summary of the method: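 Methyltransferase activity tracked as 3H transfer from 10 nM 3H-SAM to 60 nM biotinylated peptide, counted after streptavidin Flashplate capture and normalised to DMSO and 1000 uM SAH controls. Enzyme: 1.5 nM full-length Sf9-expressed SMYD2, 30 min compound pre-incubation at room temperature, in Bicine pH 7.6 buffer with 2% DMSO; reactions quenched with 600 uM unlabelled SAM; IC50 from 3- or 4-parameter fit.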

T1 sequence (Q9NRG4 whole entry): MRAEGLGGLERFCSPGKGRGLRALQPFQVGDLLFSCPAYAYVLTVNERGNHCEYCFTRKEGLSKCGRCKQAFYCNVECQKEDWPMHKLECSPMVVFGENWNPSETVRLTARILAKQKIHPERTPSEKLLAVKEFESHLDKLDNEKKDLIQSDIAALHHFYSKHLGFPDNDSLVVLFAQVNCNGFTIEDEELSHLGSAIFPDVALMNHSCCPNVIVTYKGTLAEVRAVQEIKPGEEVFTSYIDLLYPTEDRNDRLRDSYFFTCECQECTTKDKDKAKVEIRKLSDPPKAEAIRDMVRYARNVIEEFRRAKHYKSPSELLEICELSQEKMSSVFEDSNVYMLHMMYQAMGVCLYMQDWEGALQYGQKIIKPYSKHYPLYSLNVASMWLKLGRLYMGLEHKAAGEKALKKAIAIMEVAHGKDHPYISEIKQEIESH

IC50 [µM]	Structure (SMILES)
> 50	CC(C)N1C[C@@H](NC(=O)c2cc(C3CC3)on2)C[C@H]1COCC#CC1CCCCC1 (racemic) [compound 239, (±)-cis-N-[5-{[(3-cyclo-hexylprop-2-yn-1-yl)oxy]methyl}-1-(propan-2-yl)pyrrolidin-3-yl]-5-cyclopropyl-1,2-oxazole-3-carboxamide]
24.8	CC(C)N1C[C@@H](NC(=O)c2cc(C3CC3)on2)[C@@](C)(O)C1 (racemic) [compound 241, (±)-cis-5-cyclopropyl-N-[4-hydroxy-4-methyl-1-(propan-2-yl)pyrrolidin-3-yl]-1,2-oxazole-3-carboxamide]
10.5	CC(C)N1C[C@H](C)[C@H](NC(=O)c2cc(C3CCC3)on2)C1 (racemic) [compound 248, (±)-cis-5-cyclobutyl-N-[4-methyl-1-(propan-2-yl)pyrrolidin-3-yl]-1,2-oxazole-3-carboxamide]
> 50	CC(C)N1C[C@@H](C)[C@H](NC(=O)c2cc(C3CCC3)on2)C1 (racemic) [compound 249, (±)-trans-5-cyclobutyl-N-[4-methyl-1-(propan-2-yl)pyrrolidin-3-yl]-1,2-oxazole-3-carboxamide]
> 50	CC(C)N1C[C@@H](C)[C@H](NC(=O)c2cc(C3(C)CC3)on2)C1 (racemic) [compound 250, (±)-trans-N-[4-methyl-1-(propan-2-yl)pyrrolidin-3-yl]-5-(1-methylcyclo-propyl)-1,2-oxazole-3-carboxamide]
> 50	CN1C[C@@H](C(F)(F)F)[C@H](NC(=O)c2cc(C3CC3)on2)C1 (racemic) [compound 251, (±)-trans-5-cyclopropyl-N-[1-methyl-4-(trifluoro-methyl)pyrrolidin-3-yl]-1,2-oxazole-3-carboxamide]
> 50	CC(C)N1C[C@@H](C(F)(F)F)[C@H](NC(=O)c2cc(C3CC3)on2)C1 (racemic) [compound 252, (±)-trans-5-cyclopropyl-N-[1-(propan-2-yl)-4-(trifluoromethyl)pyrrolidin-3-yl]-1,2-oxazole-3-carboxamide]
> 50	C[C@@H]1CN(CCF)C[C@H]1NC(=O)c1cc(C2CC2)on1 (racemic) [compound 253, (±)-trans-5-cyclopropyl-N-[1-(2-fluoroethyl)-4-methylpyrrolidin-3-yl]-1,2-oxazole-3-carboxamide]
5.72	C[C@H]1CN(CCF)C[C@H]1NC(=O)c1cc(C2CC2)on1 (racemic) [compound 254, (±)-cis-5-cyclopropyl-N-[1-(2-fluoroethyl)-4-methylpyrrolidin-3-yl]-1,2-oxazole-3-carboxamide]
> 50	C[C@@H]1CN(CC2CCN(C(=O)OC(C)(C)C)CC2)C[C@H]1NC(=O)c1cc(C2CC2)on1 (racemic) [compound 255, (±)-trans-tert-butyl 4-{[3-(5-cyclopropyl-1,2-oxazole-3-amido)-4-methylpyrrolidin-1-yl]methyl}piperidine-1-carboxylate]
> 50	C[C@@H]1CN(CC2CCNCC2)C[C@H]1NC(=O)c1cc(C2CC2)on1 (racemic) [compound 256, (±)-trans-5-cyclopropyl-N-[4-methyl-1-(piperidin-4-ylmethyl)pyrrolidin-3-yl]-1,2-oxazole-3-carboxamide]
> 50	CN1C[C@H](NC(=O)c2cc(C3CC3)on2)[C@H](C(C)(C)C)C1 (racemic) [compound 257, (±)-cis-N-[4-tert-butyl-1-methylpyrrolidin-3-yl]-5-cyclopropyl-1,2-oxazole-3-carboxamide]
> 50	CC(C)N1C[C@H](NC(=O)c2cc(C3CC3)on2)[C@H](C(C)(C)C)C1 (racemic) [compound 258, (±)-cis-N-[4-tert-butyl-1-(propan-2-yl)pyrrolidin-3-yl]-5-cyclopropyl-1,2-oxazole-3-carboxamide]
> 50	CC(C)N1C[C@@H](C)[C@H](NC(=O)c2cc(C3(C)CCC3)on2)C1 (racemic) [compound 259, (±)-trans-N-[4-methyl-1-(propan-2-yl)pyrrolidin-3-yl]-5-(1-methylcyclobutyl)-1,2-oxazole-3-carboxamide]
> 50	CC(C)N1C[C@H](C)[C@H](NC(=O)c2cc(C3(C)CCC3)on2)C1 (racemic) [compound 260, (±)-cis-N-[4-methyl-1-(propan-2-yl)pyrrolidin-3-yl]-5-(1-methyl-cyclobutyl)-1,2-oxazole-3-carboxamide]
> 50	C[C@@H]1CN(CC(F)(F)F)C[C@H]1NC(=O)c1cc(C2CC2)on1 (racemic) [compound 261, (±)-trans-5-cyclopropyl-N-[4-methyl-1-(2,2,2-trifluoroethyl)pyrrolidin-3-yl]-1,2-oxazole-3-carboxamide]
> 50	C[C@H]1CN(CC(F)(F)F)C[C@H]1NC(=O)c1cc(C2CC2)on1 (racemic) [compound 262, (±)-cis-5-cyclopropyl-N-[4-methyl-1-(2,2,2-trifluoroethyl)pyrrolidin-3-yl]-1,2-oxazole-3-carboxamide]

IC50 [µM]	Structure (SMILES)
> 50	C[C@H]1CN(CC(=O)N2CCN(C)CC2)C[C@H]1NC(=O)c1cc(C2CC2)on1 (racemic) [compound 263, (±)-cis-5-cyclopropyl-N-[4-methyl-1-[2-(4-methylpiperazin-1-yl)-2-oxoethyl]pyrrolidin-3-yl]-1,2-oxazole-3-carboxamide]
> 50	C[C@H]1CN(CC(=O)N2CCCC2)C[C@H]1NC(=O)c1cc(C2CC2)on1 (racemic) [compound 264, (±)-cis-5-cyclopropyl-N-[4-methyl-1-[2-oxo-2-(pyrrolidin-1-yl)ethyl]pyrrolidin-3-yl]-1,2-oxazole-3-carboxamide]
4.89	C[C@H]1CN(Cc2cccc3[nH]ncc23)C[C@H]1NC(=O)c1cc(C2CC2)on1 (racemic) [compound 265, (±)-cis-5-cyclopropyl-N-[1-(1H-indazol-4-ylmethyl)-4-methylpyrrolidin-3-yl]-1,2-oxazole-3-carboxamide]
12.3	C[C@H]1CN(Cc2cccc3cccnc23)C[C@H]1NC(=O)c1cc(C2CC2)on1 (racemic) [compound 266, (±)-cis-5-cyclopropyl-N-[4-methyl-1-(quinolin-8-ylmethyl)pyrrolidin-3-yl]-1,2-oxazole-3-carboxamide]
> 50	C[C@H]1CN(CC(=O)N(C)C)C[C@H]1NC(=O)c1cc(C2CC2)on1 (racemic) [compound 267, (±)-cis-5-cyclopropyl-N-[1-[(dimethyl-carbamoyl)methyl]-4-methylpyrrolidin-3-yl]-1,2-oxazole-3-carboxamide]
5.3	Cc1cc(CN2C[C@H](C)[C@H](NC(=O)c3cc(C4CC4)on3)C2)oc1C (racemic) [compound 268, (±)-cis-5-cyclopropyl-N-{1-[(4,5-dimethyl-furan-2-yl)methyl]-4-methylpyrrolidin-3-yl]-1,2-oxazole-3-carboxamide]
4.17	C[C@H]1CN(Cc2cc3ccccc3nc2Cl)C[C@H]1NC(=O)c1cc(C2CC2)on1 (racemic) [compound 269, (±)-cis-N-[1-[(2-chloro-quinolin-3-yl)methyl]-4-methylpyrrolidin-3-yl]-5-cyclopropyl-1,2-oxazole-3-carboxamide]
> 50	C[C@H]1CN(CC(=O)N2CCOCC2)C[C@H]1NC(=O)c1cc(C2CC2)on1 (racemic) [compound 270, (±)-cis-5-cyclopropyl-N-[4-methyl-1-[2-(morpholin-4-yl)-2-oxoethyl]pyrrolidin-3-yl]-1,2-oxazole-3-carboxamide]
> 50	C[C@@H]1CN(CC(=O)N2CCOCC2)C[C@H]1NC(=O)c1cc(C2CC2)on1 (racemic) [compound 271, (±)-trans-5-cyclopropyl-N-[4-methyl-1-[2-(morpholin-4-yl)-2-oxoethyl]pyrrolidin-3-yl]-1,2-oxazole-3-carboxamide]
> 50	C[C@H]1CN(c2ccccc2)C[C@H]1NC(=O)c1cc(C2CC2)on1 (racemic) [compound 272, (±)-cis-5-cyclopropyl-N-[4-methyl-1-phenylpyrrolidin-3-yl]-1,2-oxazole-3-carboxamide]
> 50	C[C@H]1CN(c2ccc(Cl)cc2)C[C@H]1NC(=O)c1cc(C2CC2)on1 (racemic) [compound 273, (±)-cis[N-[1-(4-chloro-phenyl)-4-methyl-pyrrolidin-3-yl]-5-cyclopropyl-1,2-oxazole-3-carboxamide]
6.3	C[C@H]1CN(Cc2ccc3c(c2)OCCO3)C[C@H]1NC(=O)c1cc(C2CC2)on1 (racemic) [compound 274, (±)-cis-5-cyclopropyl-N-[1-(2,3-dihydro-1,4-benzodioxin-6-ylmethyl)-4-methylpyrrolidin-3-yl]-1,2-oxazole-3-carboxamide]
3.02	C[C@H]1CN(Cc2ccccc2Cl)C[C@H]1NC(=O)c1cc(C2CC2)on1 (racemic) [compound 275, (±)-cis-N-{1-[(2-chloro-phenyl)methyl]-4-methyl-pyrrolidin-3-yl}-5-cyclopropyl-1,2-oxazole-3-carboxamide]
5.85	C[C@H]1CN(CCO)C[C@H]1NC(=O)c1cc(C2CC2)on1 (racemic) [compound 276, (±)-cis-5-cyclopropyl-N-[1-(2-hydroxyethyl)-4-methylpyrrolidin-3-yl]-1,2-oxazole-3-carboxamide]
> 50	C[C@@H]1CN(CC(=O)N(C)C)C[C@H]1NC(=O)c1cc(C2CC2)on1 (racemic) [compound 277, (±)-trans-5-cyclopropyl-N-{1-[(dimethyl-carbamoyl)methyl]-4-methylpyrrolidin-3-yl}-1,2-oxazole-3-carboxamide]
> 50	CC(=O)Nc1ccc(N2C[C@H](C)[C@H](NC(=O)c3cc(C4CC4)on3)C2)cc1 (racemic) [compound 278, (±)-cis-5-cyclopropyl-N-[1-(4-acetamido-phenyl)-4-methylpyrrolidin-3-yl]-1,2-oxazole-3-carboxamide]

From patent US20170253601A1, “Substituted Pyrrolidine Compounds” (EPIZYME, INC., priority 2014, published 2017)
